Experimental data taken from patent US8921398B2 (Boehringer Ingelheim International GmbH, priority 2011, dated 2014).

Biological target: T1, human GPR119 (Homo sapiens, UniProt Q8TDV5)
T1 construct: expression vector for human GPR119 cDNA (Acc. No. NP_848566); expressed in transfected cells
T1 sequence (Q8TDV5 1-335): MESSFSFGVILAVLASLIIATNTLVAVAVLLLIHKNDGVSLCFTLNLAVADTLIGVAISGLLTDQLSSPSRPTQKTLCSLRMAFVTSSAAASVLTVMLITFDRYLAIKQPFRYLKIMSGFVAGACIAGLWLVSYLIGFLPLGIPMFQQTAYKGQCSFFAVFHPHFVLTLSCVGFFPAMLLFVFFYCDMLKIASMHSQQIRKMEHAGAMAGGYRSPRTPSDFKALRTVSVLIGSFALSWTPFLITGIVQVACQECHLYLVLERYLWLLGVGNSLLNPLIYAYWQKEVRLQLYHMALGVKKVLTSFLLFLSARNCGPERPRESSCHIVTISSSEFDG
Assay: AlphaScreen cAMP assay in MIN6 cells stably transfected with human GPR119
Assay type: cell-based
Settings: Min-6/hGPR119 cells, 45 minutes incubation at room temperature
Procedure: The compounds of formula I according to the invention modulate the activity of the G-protein-coupled receptor GPR119. The effect of the compounds on the activation of GPR119 and on the stimulation of intracellular cAMP concentration is determined using the AlphaScreen cAMP Assay Kit (Cat.No.#6760625R) made by PerkinElmer.
MIN6 cells [Miyazaki J et al. Endocrinology. 1990 July; 127(1):126-32] are stably transfected with an expression vector for human GPR119 cDNA (Acc. No. NP_848566). Min-6/hGPR119 cells are cultured in DMEM, 10% FBS, 50 μM β-mercaptoethanol, 0.3 mg/mL Geniticin, 2 mM GlutaMAX at 37° C. 5% CO2. For the assay, the cells are seeded in Optiplates (white, 384-well, 160W-barcoded, TC, sterile with lid, Cat.No.#6007688 (Perkin Elmer); 10000 cells/well; 50 μl). The plates covered with lids are then incubated for 24 hours at 37° C./5% CO2. After the medium is aspirated from the wells completely, 10 μl of the test compound are added, the compounds are diluted using stimulating buffer (140 mM NaCl, 3.6 mM KCl, 0.5 mM NaH2PO4, 0.5 mM MgSO4, 1.5 mM CaCl2, 10 mM Hepes, 5 mM NaHCO3; pH 7.4. 0.5 mM IBMX and 0.1% BSA, the final DMSO concentration is 1%). After 45 minutes incubation at room temperature (approx. 20° C.), the cAMP concentrations are determined using the AlphaScreen cAMP Assay Kit (Cat.No.#6760625R from PerkinElmer).

Structure (SMILES): CC(C)(C)c1noc(N2CCC(N(C(=O)c3cc(-c4ccc(C#N)cc4F)no3)C3CC3)CC2)n1 [Example 31, 3-(4-Cyano-2-fluoro-phenyl)-isoxazole-5-carboxylic acid [1-(3-tert-butyl-[1,2,4]oxadiazol-5-yl)-piperidin-4-yl]-cyclopropyl-amide]
- EC50: 6 nM

Structure (SMILES): CCCc1noc(N2CCC(N(C(=O)c3cnc(-c4cnco4)cn3)C3CC3)CC2)n1 [Example 39, 5-Oxazol-5-yl-pyrazine-2-carboxylic acid cyclopropyl-[1-(3-propyl-[1,2,4]oxadiazol-5-yl)-piperidin-4-yl]-amide]
- EC50: 67 nM

Structure (SMILES): CCc1noc(N2CCC(N(C(=O)c3cnc(-c4ccc(CC#N)cc4)nc3)C3CC3)CC2)n1 [Example 8, 2-(4-Cyanomethyl-phenyl)-pyrimidine-5-carboxylic acid cyclopropyl-[1-(3-ethyl-[1,2,4]oxadiazol-5-yl)-piperidin-4-yl]-amide]
- EC50: 36 nM

Structure (SMILES): CCc1cnc(N2CCC(N(C(=O)c3cnc(-n4ccnc4C)nc3)C3CC3)CC2)nc1 [Example 14, 2-(2-Methyl-imidazol-1-yl)-pyrimidine-5-carboxylic acid cyclopropyl-[1-(5-ethyl-pyrimidin-2-yl)-piperidin-4-yl]-amide]
- EC50: 21 nM

Structure (SMILES): CC(C)(C)c1noc(N2CCC(N(C(=O)c3cnc(-c4cnco4)cn3)C3CC3)CC2)n1 [Example 32, 5-Oxazol-5-yl-pyrazine-2-carboxylic acid [1-(3-tert-butyl-[1,2,4]oxadiazol-5-yl)-piperidin-4-yl]-cyclopropyl-amide]
- EC50: 14 nM
